# Columns and labels:
# [1] = tested on: unfractionated heparin (UFH); assay: aPTT clotting assay, UFH 0.2 U/mL in plasma (Example 7); format: biochemical; conditions: UFH 0.2 U/mL in plasma
# Experimental: aPTT clotting Assay. Unfractionated heparin was mixed with plasma at a final concentration of 0.2 U/mL. […] The ACL Elite Hemostasis analyzer (Beckman Coulter™) was used to add aPTT reagent (HemosIL SynthASil) to supplemented plasma. Clotting was initiated by addition of CaCl2 and time to clot was recorded.
# [2] = tested on: enoxaparin (ENOX); assay: FXa chromogenic assay (absence of plasma), enoxaparin; conditions: enoxaparin 0.1 μg/mL, absence of plasma
# [3] = tested on: fondaparinux (FONDAPX); assay: FXa chromogenic assay (absence of plasma), fondaparinux; conditions: fondaparinux 0.02 μg/mL, absence of plasma
SMILES,UFH (aPTT) EC50 [1],ENOX (FXa) EC50 [2],FONDAPX (FXa) EC50 [3]
COc1ccc(NC(=O)[C@@H](CCCNC(=N)N)NC(=O)c2cc(NC(=O)[C@@H](CCCNC(=N)N)NC(=O)c3cc(NC(=O)[C@H](N)CCCNC(=N)N)ccc3OC)ccc2OC)cc1C(=O)N[C@H](CCCNC(=N)N)C(N)=O [Compound 42],2.34 µg/mL,4.07 µg/mL,70.66 µg/mL
COc1cc(OC)c(C(=O)N[C@H]2CC[C@H](NC(=O)c3cc(C(=O)NCCN(C)C)c(OCCCCCN)cc3OCCCCCN)CC2)cc1C(=O)NC1CCC(NC(=O)c2cc(C(=O)NCCN(C)C)c(OCCCCCN)cc2OCCCCCN)CC1 (stereo partly shown) [Compound 2],6.25 µg/mL,2.26 µg/mL,inactive
N=C(N)NCCC[C@@H](N)C(=O)Nc1ccc(OCCNC(=N)N)c(C(=O)N[C@H](CCCNC(=N)N)C(=O)Nc2ccc(OCCNC(=N)N)c(C(=O)N[C@H](CCCNC(=N)N)C(=O)Nc3ccc(OCCNC(=N)N)c(C(N)=O)c3)c2)c1 [Compound 9],5.35 µg/mL,2.90 µg/mL,40.16 µg/mL
COc1ccc(NC(=O)[C@@H](CCCNC(=N)N)NC(=O)c2cc(NC(=O)[C@@H](C)NC(=O)c3cc(NC(=O)[C@@H](CCCNC(=N)N)NC(=O)c4cc(NC(=O)[C@H](N)CCCNC(=N)N)ccc4OC)ccc3OC)ccc2OC)cc1C(N)=O [Compound 14],,2.04 µg/mL,10.31 µg/mL
COc1ccc(NC(=O)[C@@H](CCCNC(=N)N)NC(=O)c2cc(NC(=O)[C@@H](CCCNC(=N)N)NC(=O)c3cc(NC(=O)[C@@H](CCCNC(=N)N)NC(=O)c4cc(NC(=O)[C@@H](C)N)ccc4OC)ccc3OC)ccc2OC)cc1C(=O)NCCCCCN [Compound 55],,0.18 µg/mL,4.16 µg/mL
COc1ccc(NC(=O)[C@@H](CCCNC(=N)N)NC(=O)c2cc(NC(=O)[C@@H](CCCNC(=N)N)NC(=O)c3cc(NC(=O)[C@@H](CCCNC(=N)N)NC(=O)c4cc(NC(=O)[C@@H](C)NC(=O)CCCCNC(=N)N)ccc4OC)ccc3OC)ccc2OC)cc1C(=O)NCCN [Compound 57],,0.17 µg/mL,3.25 µg/mL
COc1ccc(NC(=O)[C@@H](CCCNC(=N)N)NC(=O)c2cc(NC(=O)[C@@H](CCCNC(=N)N)NC(=O)c3cc(NC(=O)[C@@H](CCCNC(=N)N)NC(=O)c4cc(NC(=O)[C@@H](C)NC(=O)CCCCN)ccc4OC)ccc3OC)ccc2OC)cc1C(=O)NCCCCCN [Compound 62],,0.10 µg/mL,3.99 µg/mL
COc1ccc(NC(=O)[C@@H](CCCNC(=N)N)NC(=O)c2cc(NC(=O)[C@H](N)CCCNC(=N)N)ccc2F)cc1C(=O)N[C@H](CCCNC(=N)N)C(=O)Nc1ccc(OC)c(C(=O)N[C@H](CCCNC(=N)N)C(=O)Nc2ccc(F)c(C(N)=O)c2)c1 [Compound 24],,0.47 µg/mL,9.23 µg/mL
COc1ccc(NC(=O)[C@@H](CCCNC(=N)N)NC(=O)c2cc(NC(=O)[C@@H](CCCNC(=N)N)NC(=O)c3cc(NC(=O)[C@@H](CCCNC(=N)N)NC(=O)c4cc(NC(=O)[C@@H](C)NC(C)=O)ccc4OC)ccc3OC)ccc2OC)cc1C(=O)NCCN [Compound 56],,0.43 µg/mL,5.24 µg/mL
N=C(N)NCCC[C@@H](N)C(=O)Nc1cccc(C(=O)N[C@H](CCCNC(=N)N)C(=O)Nc2cccc(C(=O)N[C@H](CCCNC(=N)N)C(=O)Nc3cccc(C(=O)N[C@H](CCCNC(=N)N)C(=O)Nc4cccc(C(N)=O)c4)c3)c2)c1 [Compound 20],,8.62 µg/mL,11.10 µg/mL
COc1ccc(NC(=O)[C@@H](CCCNC(=N)N)NC(=O)c2cc(NC(=O)[C@@H](CCCNC(=N)N)NC(=O)c3cc(NC(=O)[C@@H](C)NC(=O)c4cc(NC(=O)[C@H](N)CCCNC(=N)N)ccc4OC)ccc3OC)ccc2OC)cc1C(N)=O [Compound 15],,0.92 µg/mL,7.84 µg/mL

# The next lines start with the values.
UFH (aPTT) EC50 [1],ENOX (FXa) EC50 [2],FONDAPX (FXa) EC50 [3],SMILES
7.39 µg/mL,0.418 µg/mL,6.94 µg/mL,COc1ccc(NC(=O)[C@H](CCCCN)NC(=O)c2cc(NC(=O)[C@H](CCCCN)NC(=O)c3cc(NC(=O)[C@H](CCCCN)NC(=O)c4cc(NC(=O)[C@@H](N)CCCCN)cc(C(F)(F)F)c4)ccc3OC)ccc2OC)cc1C(N)=O [Compound 124]
3.02 µg/mL,0.41 µg/mL,7.07 µg/mL,COc1ccc(NC(=O)[C@H](CCCCN)NC(=O)c2cc(NC(=O)[C@H](CCCNC(=N)N)NC(=O)c3cc(NC(=O)[C@H](CCCCN)NC(=O)c4cc(NC(=O)[C@@H](N)CCCCN)ccc4OC)ccc3OC)ccc2OC)cc1C(N)=O [Compound 79]
2.28 µg/mL,0.38 µg/mL,0.42 µg/mL,COc1ccc(NC(=O)[C@@H](CCCNC(=N)N)NC(=O)c2cc(NC(=O)[C@@H](CCCNC(=N)N)NC(=O)c3cc(NC(=O)[C@@H](CCCNC(=N)N)NC(=O)c4cc(NC(C)=O)ccc4OC)ccc3OC)ccc2OC)cc1C(N)=O [Compound 93]
7.17 µg/mL,0.55 µg/mL,1.40 µg/mL,COc1ccc(NC(=O)[C@H](CCCNC(=N)N)NC(=O)c2cc(NC(=O)[C@H](CCCNC(=N)N)NC(=O)c3cc(NC(=O)[C@H](CCCNC(=N)N)NC(=O)c4cc(NC(=O)[C@H](C)NC(=O)CCCCNC(=N)N)ccc4OC)ccc3OC)ccc2OC)cc1C(N)=O [Compound 92]
>10 µg/mL,1.934 µg/mL,inactive,COc1ccc(NC(=O)[C@H](CCCNC(=N)N)NC(=O)c2cc(NC(=O)[C@@H](N)CCCNC(=N)N)ccc2OC)cc1C(=O)N[C@@H](CCCNC(=N)N)C(=O)Nc1ccc(OC)c(C(=O)N[C@@H](CCCNC(=N)N)C(=O)Nc2ccc(OC)c(C(=O)N3CCCC3C(N)=O)c2)c1 (stereo partly shown) [Compound 123]
3.10 µg/mL,,,COc1ccc(NC(=O)[C@H](CCCCN)NC(=O)c2cc(NC(=O)[C@H](CCCCN)NC(=O)c3cc(OC(=O)[C@@H](N)CCCCN)ccc3OC)ccc2OC)cc1C(=O)N[C@@H](CCCCN)C(=O)Nc1ccc(OCC(=O)O)c(C(N)=O)c1 [Compound 116]
inactive,inactive,inactive,COc1ccc(NC(=O)[C@H](CCCCN)NC(=O)c2cc(NC(=O)[C@@H](N)CCCCN)ccc2OC)cc1C(=O)N[C@@H](CCCCN)C(=O)Nc1ccc(SC)c(C(=O)N[C@@H](CCCCN)C(=O)Nc2ccc(SC)c(C(N)=O)c2)c1 [Compound 141]
2.96 µg/mL,1.011 µg/mL,12.700 µg/mL,COc1ccc(NC(=O)[C@H](CCCCN)NC(=O)c2cc(NC(=O)[C@H](CCCCN)NC(=O)c3cc(NC(=O)[C@H](CCCCN)NC(=O)c4cc(NC(=O)[C@@H](N)CCCCN)ccc4OC)ccc3OC)ccc2OC)cc1C(=O)NCCCCCC(=O)O [Compound 143]
3.91 µg/mL,0.3254 µg/mL,6.037 µg/mL,COc1ccc(NC(=O)[C@H](CCCCN)NC(=O)c2cc(NC(=O)[C@H](CCCCN)NC(=O)c3cc(NC(=O)[C@H](CCCCN)NC(=O)c4cc(NC(=O)[C@H](N)CCCCN)ccc4OC)ccc3OC)ccc2OC)cc1C(N)=O [Compound 122]
7.48 µg/mL,0.4289 µg/mL,8.293 µg/mL,[2H]C([2H])(CN)C([2H])([2H])C[C@H](N)C(=O)Nc1ccc(OC)c(C(=O)N[C@@H](CCCCN)C(=O)Nc2ccc(OC)c(C(=O)N[C@@H](CCCCN)C(=O)Nc3ccc(OC)c(C(=O)N[C@@H](CCCCN)C(=O)Nc4ccc(OC)c(C(N)=O)c4)c3)c2)c1 [Compound 121]
approx 16 μg/mL,0.8434 µg/mL,4.158 µg/mL,COc1ccc(NC(=O)[C@H](CCCCN)NC(=O)c2cc(NC(=O)[C@H](CCCCN)NC(=O)c3cc(NC(=O)[C@H](CCCCN)NC(=O)c4cc(NC(=O)[C@@H](N)Cc5c[nH]c6ccccc56)ccc4OC)ccc3OC)ccc2OC)cc1C(N)=O [Compound 101]
inactive,,>90 µg/mL,COc1cc(OC)c(C(=O)N[C@H]2CC[C@H](NC(=O)c3cc(C(=O)NCCN(C)C)c(OCCCCCN)cc3OCCCCCN)CC2)cc1C(=O)NCCN(C)C [Compound 86]
2.53 µg/mL,,,COc1ccc(NC(=O)[C@@H](CCCNC(=N)N)NC(=O)c2cc(NC(=O)[C@@H](CCCNC(=N)N)NC(=O)c3cc(NC(=O)[C@@H](CCCNC(=N)N)NC(=O)c4cc(NC(=O)[C@@H](CCCNC(=N)N)NC(=O)CCCCCCCCC(=O)N[C@H](CCCNC(=N)N)C(=O)Nc5ccc(OC)c(C(=O)N[C@H](CCCNC(=N)N)C(=O)Nc6ccc(OC)c(C(=O)N[C@H](CCCNC(=N)N)C(=O)Nc7ccc(OC)c(C(=O)N[C@H](CCCNC(=N)N)C(=O)Nc8ccc(OC)c(C(N)=O)c8)c7)c6)c5)ccc4OC)ccc3OC)ccc2OC)cc1C(N)=O [Compound 66]
3.14 µg/mL,,,COc1ccc(NC(=O)[C@H](CCCCN)NC(=O)c2cc(NC(=O)[C@H](CCCCN)NC(=O)c3cc(NC(=O)[C@H](CCCCN)NC(=O)c4cc(NC(=O)[C@@H](N)CCCCN)ccc4OC)ccc3OCC(=O)O)ccc2OC)cc1C(N)=O [Compound 118]
4.48 µg/mL,16.29 µg/mL,,N=C(N)NCCC[C@@H](N)C(=O)Nc1cccc(C(=O)N[C@H](CCCNC(=N)N)C(=O)Nc2cccc(C(=O)N[C@H](CCCNC(=N)N)C(=O)Nc3cccc(C(=O)N[C@H](CCCNC(=N)N)C(=O)Nc4cccc(C(N)=O)n4)n3)n2)n1 [Compound 65]
,0.07 µg/mL,0.77 µg/mL,COc1ccc(NC(=O)[C@@H](CCCNC(=N)N)NC(=O)c2cc(NC(=O)[C@@H](CCCNC(=N)N)NC(=O)c3cc(NC(=O)[C@@H](CCCNC(=N)N)NC(=O)c4cc(NC(=O)[C@H](N)CCCNC(N)=O)ccc4OC)ccc3OC)ccc2OC)cc1C(N)=O [Compound 82]

# From patent US20110178104A1, “Anti-Heparin Compounds” (POLYMEDIX INC., priority 2010, published 2011)
